The values below are quoted from earlier work in patent publication US10874615B2, “Formulation having controlled, delayed release of active ingredient” (Merck Patent GmbH, priority 2015, dated 2020).

For the data set the following is noted: after oral administration; first-pass metabolism.

On to `CC(C)NCC(O)COc1cccc2ccccc12` (stereo not shown) [propranolol], for which the bioavailability is on record as 25-30%.
